# From patent US6958345B2, “2-hydroxymethylcyclopropylidene methylpurines and -pyrimidines as antiviral agents” (The Regents of the University of Michigan, priority 1997, dated 2005)
# pIC50: −log10 of the molar value.
# How the values were obtained:
# HSV-1 = HSV-1 ELISA in BSC-1 cells; assay type: cell-based, herpes simplex 1 (HSV-1); details: BSC-1 cells; ELISA
# Experimental: Virological procedures. Stock HCMV was prepared by infecting HFF cells at a multiplicity of infection (m.o.i.) of <0.01 plaque-forming units (p.f.u.) per cell. Cell growth medium was changed every four days until cytopathology was evident in all cells (approximately 21 days). Supernatant fluids were retained as the virus stock. High titer HSV-1 stocks were prepared by infecting KB cells at an m.o.i. of <0.1 as detailed previously. Turk, S. R., et al., Antimicrob. Agents Chemother. 31:544-550 (1987). Virus titers were determined using monolayer cultures of HFF cells for HCMV and monolayer cultures of BSC-1 cells for HSV-1 as described earlier. Prichard, M. N., et al., J. Virol. Methods 28:101-106 (1990). Briefly, HFF or BSC-1 cells were planted as described above in 96-well cluster dishes and incubated overnight at 37° C. in a humidified 3% CO297% air atmosphere. The next day cultures were inoculated with HCMV or HSV-1 and serially diluted 1:3 across the remaining eleven columns of the 96-well plate. Cultures were incubated at 37° C. for 2 hr to permit virus adsorption and then virus inoculum was replaced with 0.2 mL of fresh medium. Cultures were incubated for seven days for HCMV, two or three days for HSV-1, medium was removed, and the cell sheets were stained with 0.1% crystal violet in 20% methanol. Plaques were enumerated under 20-fold magnification in wells having the dilution which gave 5 to 20 plaques per well. Virus titers were calculated according to the following Formula: Titer (p.f.u./mL)=number of plaques×5×3^n; where n represents the nth dilution of the virus used to infect the well in which plaques were enumerated.
# (b) HSV-1. An enzyme-linked immunosorbent assay (ELISA) was employed to detect HSV-1. 96-well cluster dishes were planted with BSC-1 cells at 10,000 cells per well, in a total volume of 200 μL per well of MEM(E) plus 10% calf serum. After overnight incubation at 37° C., drug and HSV-1 was added at the rate of 100 PFU/well. ELISA plates were blocked with 200 μL per well of 10% calf serum and 0.05% tween in HBS. After incubation for 30 minutes, the blocking agent was rinsed two times with HBS-T. A 1:400 dilution of AP conjugated rabbit anti-HSV-1 antibody in HBS-F was added. Plates were sealed with adhesive sheet, and incubated on rocker for one hour at 37° C. Plates were developed in the dark with 100 μL per well of substrate solution containing p-nitrophenyl phosphate. Plates were read at […]. Drug effects were calculated as a percentage of the reduction in virus in the presence of each drug concentration compared to the titer obtained in the absence of drug. Acyclovir was used as a positive control in all experiments.
# Data Analysis. Dose-response relationships were constructed by linearly regressing the percent inhibition of parameters derived in the preceding sections against log drug concentrations. Fifty-percent inhibitory (IC50) concentrations were calculated from the regression lines. Samples containing positive controls (acyclovir for HSV-1, ganciclovir for HCMV, and 2-acetylpyridine thiosemicarbazone for cytotoxicity) were used in all assays.
# HHV-6 = HHV-6 ELISA in HSB-2 cells; assay type: cell-based, human herpes virus 6 (HHV 6)
# Experimental: (c) HHV-6. In this case, enzyme-linked immunosorbent assay (ELISA) was performed in covalent amine plates (Costar, Cambridge, Mass.). The plates were activated by the addition of a homobifunctional crosslinking agent, bis(sulfosuccinimidyl) suberate, which was dissolved at 1 mg/mL in 30 mL of phosphate buffered saline (PBS: 137 mM NaCl, 2.7 mM KCl, 4.3 mM Na2HPO4, 1.4 mM KH2PO4, pH 7.4) and 300 μL of the crosslinker was added to each well in the covalent plate. The crosslinker reacted with the amine function on the plate for 30 min at room temperature. The byproduct, sodium N-hydroxysuccinimide sulfite, was removed by decanting and washing the plate twice with PBS. Samples consisting of 150 μl of mixed suspended HSB2 cells from the original drug-treated plate were solubilized in an equal volume of 10% Triton X-100 in coating buffer (15 mM Na2CO3, […] NaHCO3, pH 9.6). The plate was covered and then incubated for 1 h at 37° C. in a 5% CO2 atmosphere. These binding conditions facilitated covalent attachment of the antigen to the free end of the crosslinker.
# After covalent binding, the antigen solution was decanted and the plate was washed six times in HEPES buffered saline (Shipman, C., Jr., Proc. Soc. Exp. Biol. 130:305-310 (1969)) with 0.05% Tween 20 (HBS-T ), soaking for three min for each wash. […] Absorbance in each well was determined at 450/570 nm.
structure (smiles),measurement,setting,value
"Nc1ncnc2c1ncn2C=C1CC1CO (stereo not drawn) [1 (B = adenine), Example 5, syn-N^9-(2-hydroxymethylcyclopropylidenemethyl)adenine]",pIC50,HSV-1,5.43
same,pIC50,HHV-6,5.52
